Here are results for five compounds from ChEMBL document CHEMBL1649141, “Synthesis and antimalarial activities of cyclen 4-aminoquinoline analogs” (Antimicrob Agents Chemother, 2009).

Calls of active or inactive are those of the source. The rule behind the calls is not given here.

In one data set the test system is Vero. Description: Cytotoxicity against african green monkey Vero cells upto 10 uM after 72 hrs. The conditions noted are these: chlorocebus sabaeus. It is filed as cell-based.
The nature of data set [1]: Selectivity index, ratio of IC50 for african green monkey Vero cells to IC50 for chloroquine-resistant Plasmodium falciparum W2. It counts as toxicity, cell-based. The conditions noted are these: read-out: Selectivity Index.
The subject of data set [2] is Plasmodium falciparum. Description: Antimalarial activity against chloroquine-sensitive Plasmodium falciparum D6 after 72 hrs. It counts as functional, organism-based. As to conditions: D6, 72 h.
Data set [3] deals with Plasmodium falciparum. The data set is described as follows: Antimalarial activity against chloroquine-resistant Plasmodium falciparum W2 after 72 hrs. It counts as functional, organism-based. The conditions noted are these: W2, 72 h.
A short description of data set [4]: Selectivity index, ratio of IC50 for african green monkey Vero cells to IC50 for chloroquine-sensitive Plasmodium falciparum D6. It counts as toxicity, cell-based. As to conditions: read-out: Selectivity Index.
In data set [5] the test system is Plasmodium berghei. The data set is described as follows: Antimalarial activity against Plasmodium berghei NK-65 infected in Swiss Webster mouse assessed as cure from parasite infection at 30 mg/kg, ip QD for 3 days administered 2 hrs post infection measured on day 28. It is filed as functional. As to conditions: route intraperitoneal.
The test system of data set [6] is Plasmodium berghei. Description: Antimalarial activity against Plasmodium berghei NK-65 infected in Swiss Webster mouse assessed as suppression of parasitemia at 1.1 mg/kg, ip QD for 3 days administered 2 hrs post infection measured on day 7. It counts as functional. As to conditions: route intraperitoneal.
In data set [7] the test system is Plasmodium berghei. The data set is described as follows: Antimalarial activity against Plasmodium berghei NK-65 infected in Swiss Webster mouse assessed as mean survival time at 10 mg/kg, ip QD for 3 days administered 2 hrs post infection. It is filed as functional. As to conditions: route intraperitoneal.
Data set [8] has as its system Plasmodium berghei. Description: Antimalarial activity against Plasmodium berghei NK-65 infected in Swiss Webster mouse assessed as suppression of parasitemia at 3.3 mg/kg, ip QD for 3 days administered 2 hrs post infection measured on day 10. As to conditions: route intraperitoneal. It counts as functional.
Data set [9] has as its system Plasmodium falciparum. The data set is described as follows: Antimalarial activity against chloroquine-sensitive Plasmodium falciparum D6 assessed as [3H]hypoxanthine incorporation. It is filed as functional, organism-based.
The subject of data set [10] is Plasmodium berghei. Description: Antimalarial activity against Plasmodium berghei NK-65 infected in Swiss Webster mouse assessed as suppression of parasitemia at 1.1 mg/kg, ip QD for 3 days administered 2 hrs post infection measured on day 10. As to conditions: route intraperitoneal. It counts as functional.
The subject of data set [11] is Plasmodium falciparum. Description: Antimalarial activity against […]-resistant Plasmodium falciparum TM91C235 assessed as [3H]hypoxanthine incorporation. It counts as functional, organism-based.
Data set [12] relates to Plasmodium berghei. The data set is described as follows: Antimalarial activity against Plasmodium berghei NK-65 infected in Swiss Webster mouse assessed as suppression of parasitemia at 30 mg/kg, ip QD for 3 days administered 2 hrs post infection measured on day 7. It is filed as functional. The conditions noted are these: route intraperitoneal.
In data set [13] the test system is Plasmodium berghei. The data set is described as follows: Antimalarial activity against Plasmodium berghei NK-65 infected in Swiss Webster mouse assessed as suppression of parasitemia at 10 mg/kg, ip QD for 3 days administered 2 hrs post infection measured on day 5. It counts as functional. As to conditions: route intraperitoneal.
Data set [14] concerns Plasmodium berghei. Description: Antimalarial activity against Plasmodium berghei NK-65 infected in Swiss Webster mouse assessed as suppression of parasitemia at 10 mg/kg, ip QD for 3 days administered 2 hrs post infection measured on day 10. It counts as functional. As to conditions: route intraperitoneal.
The subject of data set [15] is Plasmodium berghei. Description: Antimalarial activity against Plasmodium berghei NK-65 infected in Swiss Webster mouse assessed as cure from parasite infection at 1.1 mg/kg, ip QD for 3 days administered 2 hrs post infection measured after 28 days. It counts as functional, organism-based. Further details: dose 1.1 mg/kg.
The subject of data set [16] is Plasmodium berghei. Description: Antimalarial activity against Plasmodium berghei NK-65 infected in Swiss Webster mouse assessed as mean survival time at 3.3 mg/kg, ip QD for 3 days administered 2 hrs post infection. As to conditions: route intraperitoneal. It is filed as functional.
The test system of data set [17] is Plasmodium berghei. The data set is described as follows: Antimalarial activity against Plasmodium berghei NK-65 infected in Swiss Webster mouse assessed as mean survival time at 30 mg/kg, ip QD for 3 days administered 2 hrs post infection. The conditions noted are these: route intraperitoneal. It is filed as functional.
Data set [18] has as its system Plasmodium berghei. The data set is described as follows: Antimalarial activity against Plasmodium berghei NK-65 infected in Swiss Webster mouse assessed as mean survival time at 1.1 mg/kg, ip QD for 3 days administered 2 hrs post infection measured on day 28. It is filed as functional. As to conditions: route intraperitoneal.
In data set [19] the test system is Plasmodium berghei. Description: Antimalarial activity against Plasmodium berghei NK-65 infected in Swiss Webster mouse assessed as suppression of parasitemia at 1.1 mg/kg, ip QD for 3 days administered 2 hrs post infection measured on day 5. The conditions noted are these: route intraperitoneal. It is filed as functional.
Data set [20] has as its system Plasmodium berghei. Description: Antimalarial activity against Plasmodium berghei NK-65 infected in Swiss Webster mouse assessed as cure from parasite infection at 10 mg/kg, ip QD for 3 days administered 2 hrs post infection measured on day 28. It counts as functional, organism-based. Further details: dose 10 mg/kg.
Data set [21] relates to Plasmodium berghei. The data set is described as follows: Antimalarial activity against Plasmodium berghei NK-65 infected in Swiss Webster mouse assessed as suppression of parasitemia at 3.3 mg/kg, ip QD for 3 days administered 2 hrs post infection measured on day 5. It is filed as functional. The conditions noted are these: route intraperitoneal.
The test system of data set [22] is Plasmodium berghei. Description: Antimalarial activity against Plasmodium berghei NK-65 infected in Swiss Webster mouse assessed as suppression of parasitemia at 10 mg/kg, ip QD for 3 days administered 2 hrs post infection measured on day 7. It counts as functional. The conditions noted are these: route intraperitoneal.
Data set [23] relates to Plasmodium berghei. Description: Antimalarial activity against Plasmodium berghei NK-65 infected in Swiss Webster mouse assessed as suppression of parasitemia at 3.3 mg/kg, ip QD for 3 days administered 2 hrs post infection measured on day 7. It is filed as functional. The conditions noted are these: route intraperitoneal.
Data set [24] deals with Plasmodium falciparum. Description: Antimalarial activity against chloroquine-resistant Plasmodium falciparum W2 assessed as [3H]hypoxanthine incorporation. It counts as functional, organism-based.
Data set [25] relates to Plasmodium berghei. The data set is described as follows: Antimalarial activity against Plasmodium berghei NK-65 infected in Swiss Webster mouse assessed as cure from parasite infection at 3.3 mg/kg, ip QD for 3 days administered 2 hrs post infection measured on day 28. Details: dose 3.3 mg/kg. It is filed as functional, organism-based.
Data set [26] can be described thus: Inhibition of beta-hematin formation after 14 hrs by spectrophotometry. It counts as functional.
Data set [27] relates to Plasmodium berghei. Description: Antimalarial activity against Plasmodium berghei NK-65 infected in Swiss Webster mouse assessed as suppression of parasitemia at 30 mg/kg, ip QD for 3 days administered 2 hrs post infection measured on day 10. It is filed as functional. The conditions noted are these: route intraperitoneal.
In data set [28] the test system is Plasmodium berghei. The data set is described as follows: Antimalarial activity against Plasmodium berghei NK-65 infected in Swiss Webster mouse assessed as suppression of parasitemia at 30 mg/kg, ip QD for 3 days administered 2 hrs post infection measured on day 5. It counts as functional. As to conditions: route intraperitoneal.
The test system of another data set is Mus musculus. Description: Toxicity in Plasmodium berghei NK-65 infected Swiss Webster mouse at 30 mg/kg, ip QD for 3 days. It counts as organism-based. The conditions noted are these: in vivo, 72 h. Further details: dose 30 mg/kg, route intraperitoneal.

Regarding `C[C@@H]1CC[C@H]2[C@@H](C)C(=O)O[C@@H]3O[C@@]4(C)CC[C@@H]1[C@]32OO4` [ARTEMISININ], the Activity entry with Vero is recorded as “Non-toxic”.

As usually defined, the IC50 is the concentration needed to halve the response being measured. On to `Br.Clc1ccc2c(N3CCNCCNCCNCC3)ccnc2c1`, for which the results for the selectivity ratio in [1] and in data set [4] were greater than 48 and greater than 154, respectively. Moreover, the half-maximal inhibitory concentration (IC50) in the data set with Plasmodium falciparum [2] was 0.0648 µM; with Plasmodium falciparum [3], 0.211 µM. Further, the Activity result in the data set with Vero is “Non-toxic”.

Regarding `Clc1ccc2c(N3CCNCCN(c4ccnc5cc(Cl)ccc45)CCNCC3)ccnc2c1`, the values for the selectivity ratio in data set [1] and in data set [4] were greater than 521 and greater than 1330, respectively. Also, the Activity with Plasmodium berghei [5] is given as 60%; with Plasmodium berghei [6], 33.3%; with Plasmodium berghei [8], 43.9%; in the data set on Plasmodium berghei [10] it was 22.7%; in the data set with Plasmodium berghei [12], 100%; with Plasmodium berghei [13], 96.3%. Moreover, the Activity was 40.9% in the data set on Plasmodium berghei [14]; “Non-toxic” in the data set on Vero; 65.2% with Plasmodium berghei [19]; 84.6% in the data set on Plasmodium berghei [21]; 59.7% in the data set on Plasmodium berghei [22]; 44.1% in the data set with Plasmodium berghei [23]. For the same compound, the Activity in the data set with Plasmodium berghei [27] and in the data set with Plasmodium berghei [28] was 100% in each case. The 50% inhibitory concentration (IC50) came to 0.0075 µM with Plasmodium falciparum [2]; 0.0041 µM in the data set on Plasmodium falciparum [9]; 0.0025 µM in the data set with Plasmodium falciparum [11]; 0.0192 µM in the data set with Plasmodium falciparum [3]; 0.0058 µM with Plasmodium falciparum [24]; 1.1 µM in data set [26]. The Time in the data set on Plasmodium berghei [7] was 26.2 days; with Plasmodium berghei [16], 22.8 days; in the data set with Plasmodium berghei [17], greater than 28 days; in the data set with Plasmodium berghei [18], 23.8 days. In addition, the outcome in the data set on Plasmodium berghei [15], in the data set on Plasmodium berghei [20] and in the data set with Plasmodium berghei [25] was inactive.

On to `CCN(CC)CCCC(C)Nc1ccnc2cc(Cl)ccc12` (stereo not given) [CHLOROQUINE], for which the Activity is given as 75% with Plasmodium berghei [5]; “Non-toxic” with Mus musculus; 100% in the data set on Plasmodium berghei [12]; “Non-toxic” in the data set with Vero; 100% in the data set on Plasmodium berghei [27]; 100% in the data set on Plasmodium berghei [28]. Besides, the Time in the data set with Plasmodium berghei [17] was greater than 28 days. The compound further yielded an IC50 in [26] of 9.5 µM.

On to `OC(c1cc(C(F)(F)F)nc2c(C(F)(F)F)cccc12)C1CCCCN1` (stereo not given) [MEFLOQUINE], for which the 50% inhibitory concentration (IC50) in the data set on Plasmodium falciparum [11] was 0.0558 µM; with Plasmodium falciparum [24], 0.0072 µM.
